Experimental data published in PubChem BioAssay (NCI).
Values joined by “and” are separate entries in the source; they are usually repeats but may differ in a detail not shown here. Equal values may be shown once.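 Growth conditions: 96-well plates. Treatment: test compound, 48 hours, 5 concentrations. Analysis: linear interpolation between bracketing concentrations; unreached endpoints set to highest concentration. The concentration for 50% growth inhibition is given as GI50. TGI is the concentration that stops growth completely.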

Experiments:
Assay in all cases: NCI anticancer screen, dose series, 48 h
HL-60(TB) leukemia = tested on: HL-60(TB) leukemia
HCT-116 colon = tested on: HCT-116 colon
MALME-3M melanoma = tested on: MALME-3M melanoma
SK-MEL-28 melanoma = tested on: SK-MEL-28 melanoma
MOLT-4 leukemia = tested on: MOLT-4 leukemia
HCT-15 colon = tested on: HCT-15 colon
SNB-75 CNS = tested on: SNB-75 CNS
SNB-19 CNS = tested on: SNB-19 CNS
COLO 205 colon = tested on: COLO 205 colon
PC-3 prostate = tested on: PC-3 prostate

Structure (SMILES) | GI50 (HL-60(TB) leukemia) | TGI (HL-60(TB) leukemia) | GI50 (HCT-116 colon) | TGI (HCT-116 colon) | GI50 (MALME-3M melanoma) | TGI (MALME-3M melanoma) | GI50 (SK-MEL-28 melanoma) | TGI (SK-MEL-28 melanoma) | GI50 (MOLT-4 leukemia) | TGI (MOLT-4 leukemia) | GI50 (HCT-15 colon) | TGI (HCT-15 colon) | GI50 (SNB-75 CNS) | TGI (SNB-75 CNS) | GI50 (SNB-19 CNS) | TGI (SNB-19 CNS) | GI50 (COLO 205 colon) | TGI (COLO 205 colon) | GI50 (PC-3 prostate) | TGI (PC-3 prostate)
CCCCCCCCCCCCc1ccc(C(=O)/C=C/C(=O)O)cc1 | 1.56 µM | 3.58 µM | 1.54 µM | 3.39 µM | 1.82 µM | 3.6 µM | 1.92 µM | 3.74 µM | 0.99 µM | 5.11 µM | 1.71 µM | 3.45 µM | 1.66 µM | 10.4 µM | 7.07 µM | 22 µM | 1.83 µM | 3.84 µM | 8.12 µM | 26.6 µM
Cn1cc(-c2ccc(=O)n(Cc3cccc(-c4ncc(OCCN5CCOCC5)cn4)c3)n2)cn1 | 74.1 µM | > 100 µM | 56.5 µM | > 100 µM | > 54.9 µM | > 100 µM | > 89.5 µM | > 100 µM | 36.4 µM | > 100 µM | > 100 µM | > 100 µM | > 42.5 µM | > 100 µM | > 87.4 µM | > 100 µM | 53.7 µM | > 100 µM | 49.1 µM | > 100 µM
COC(=O)c1cnc(=O)n(C2CC(O)C(CO)O2)c1 (stereo not given) | > 100 µM | > 100 µM | > 100 µM | > 100 µM | > 100 µM | > 100 µM | > 100 µM | > 100 µM | > 100 µM | > 100 µM | > 100 µM | > 100 µM | > 100 µM | > 100 µM | > 100 µM | > 100 µM | > 100 µM | > 100 µM | 0.811 µM | > 100 µM
O=S(=O)(c1ccc(NC(=S)N/N=C/c2ccccc2O)cc1)N1CCCCC1 | 0.351 µM | 7.12 µM | – | 7 µM | – | 1.43 µM | – | > 52 µM | – | 2.13 µM | – | 18.4 µM | – | > 65.2 µM | – | > 100 µM | – | 36.5 µM | – | 21.1 µM
C[C@H]1[C@H](OC(=O)CCC(=O)O)O[C@@H]2O[C@]3(C)CC[C@H]4[C@H](C)CC[C@@H]1[C@@]24OO3 | 0.167 µM | 0.566 µM | 0.129 µM | 11.4 µM | 0.878 µM | 31.6 µM | 4.27 µM | > 100 µM | 0.308 µM | 16.5 µM | 0.107 µM | 16.1 µM | 2.34 µM | 17.6 µM | 1.62 µM | > 100 µM | 0.341 µM | 1.37 µM | 0.0886 µM | > 100 µM
COc1ccccc1C(=O)/C=C/c1cc2cccc(OC)c2[nH]c1=O | 0.0144 µM | 0.0583 µM | < 0.0225 µM | 0.632 µM | 0.0511 µM | 4.6 µM | 1.08 µM | 6.63 µM | 0.0408 µM | 5.2 µM | 0.027 µM | 1.73 µM | 0.0191 µM | 3.6 µM | 0.0332 µM | 1.47 µM | 0.0481 µM | 1.43 µM | 0.0503 µM | 2.27 µM
CCOC(=O)CCC(NC(=O)c1ccc(N=Cc2nc3cc(C(F)(F)F)ccc3nc2-c2ccccc2)cc1)C(=O)OCC (stereo not given) | 65.3 µM | 50 µM and > 100 µM | 44.7 µM | 19.4 µM and > 100 µM | > 100 µM | 22.7 µM and > 100 µM | > 100 µM | > 100 µM | > 100 µM | > 100 µM | > 100 µM | > 100 µM | 3.64 µM | 13 µM and 14.1 µM | 8.51 µM | 29.2 µM and 31.9 µM | > 100 µM | 50 µM and > 100 µM | – | > 50 µM
Cc1cc2c(C)c3cc(C)c(N)cc3nc2cc1N | 3 µM | 10.1 µM | 0.383 µM | 6.14 µM | 1.72 µM | 6.31 µM | 2.69 µM | 10.5 µM | 0.43 µM | 6.23 µM | 1.43 µM | 10.6 µM | 1.14 µM | 4.94 µM | 0.685 µM | 10.2 µM | 0.581 µM | 3.31 µM | 1.11 µM | 7.06 µM
COc1cc[nH]c1/C=C1\C(=O)Nc2ccc(F)c(C#C[C@@H](O)[C@@H](N)[C@@H](C)O)c21 | 0.42 µM | 1.55 µM | 0.323 µM | 2.89 µM | 0.504 µM | 1.7 µM | 0.648 µM | 2.86 µM | 0.6 µM | 2.06 µM | 0.839 µM | 18.3 µM | 0.112 µM | 0.75 µM | 0.909 µM | 5.51 µM | 0.303 µM | 0.743 µM | 0.369 µM | 1.6 µM
C[C@@H](c1ccc2nccn2c1)n1nnc2ncc(-c3cnn(C)c3)nc21 | > 100 µM | > 100 µM | > 100 µM | > 100 µM | > 100 µM | > 100 µM | > 100 µM | > 100 µM | > 100 µM | > 100 µM | > 100 µM | > 100 µM | > 100 µM | > 100 µM | > 100 µM | > 100 µM | > 100 µM | > 100 µM | > 100 µM | > 100 µM
OB([O][Hg][c]1ccccc1)[O][Hg][c]1ccccc1 | 0.0886 µM | 0.378 µM | 0.161 µM | 0.307 µM | 0.244 µM | 0.788 µM | 0.318 µM | 1.33 µM | 0.177 µM | 0.643 µM | 0.141 µM | 0.354 µM | 0.291 µM | 1.36 µM | 1.46 µM | 2.84 µM | 0.502 µM | 1.46 µM | 0.758 µM | 2.42 µM
N#C/C(=C\c1c(-c2ccccc2)[nH]c2ccccc12)C(=O)c1ccc(Cl)cc1 | 0.385 µM | 3.17 µM | 0.68 µM | 23.9 µM | 3.61 µM | 30.2 µM | 3.33 µM | 41.2 µM | 1.01 µM | 8.87 µM | 1.38 µM | > 100 µM | 1.43 µM | 8.7 µM | 3.07 µM | 20.2 µM | 0.814 µM | 5.43 µM | 3.42 µM | > 70.3 µM
Nc1nc(N)[n+]([O-])c(N)c1NCO | – | > 100 µM | – | > 100 µM | – | > 100 µM | – | > 100 µM | – | > 100 µM | – | > 100 µM | – | > 100 µM | – | > 100 µM | – | > 100 µM | – | > 100 µM
COc1cc(-c2cc(C(=O)N3CCN(C(=O)c4ccccc4NCc4ccco4)CC3)nc3cc(-c4ccccc4)nn23)cc(OC)c1OC | 3.7 µM | 30.6 µM | 3.26 µM | > 100 µM | 7.58 µM | > 100 µM | 16.6 µM | > 100 µM | 11.2 µM | > 100 µM | 3.4 µM | > 100 µM | 2.07 µM | 19.3 µM | 7.87 µM | > 100 µM | 1.48 µM | 8.66 µM | 2.2 µM | > 100 µM
Cc1cc(NC(=O)C2c3ccccc3C(=O)N(CC(C)C)C2c2cccs2)no1 (stereo not given) | 39 µM | > 100 µM | 49.1 µM | > 100 µM | > 100 µM | > 100 µM | > 100 µM | > 100 µM | 43.1 µM | > 100 µM | 70.6 µM | > 100 µM | 10.5 µM | > 100 µM | 46.2 µM | > 100 µM | > 100 µM | > 100 µM | 34.8 µM | > 100 µM
O=C1c2ccccc2-c2c1c1ccccc1c(=O)n2CCO | – | 7.29 µM | – | > 79.3 µM | – | > 100 µM | – | > 100 µM | – | 9.36 µM | – | > 100 µM | – | > 81 µM | – | > 100 µM | – | > 100 µM | – | > 100 µM
